Test results taken from ChEMBL document CHEMBL1201862, “PubChem BioAssay data set” (2004).
Activity calls are given as the source filed them. For most assays here, no stated cut-off is given here; in the data, actives have a measured EC50 and inactives only a lower limit.

Tests used:
[1] = target: T1, Heat shock factor protein 1 (Mus musculus, UniProt P38532); assay: inhibition of MG132-induced HSE-luciferase signal, confirmation, cell-based, NIH3T3, luminescence, dose retest (AID 2382); assay type: functional;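 further: NIH3T3 fibroblasts with HSF1-driven luciferase reporter stressed by proteasome inhibitor MG132; luminescence from HSF1-driven luciferase expression after 8 hours of MG132 stress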
T1 sequence (P38532 whole entry): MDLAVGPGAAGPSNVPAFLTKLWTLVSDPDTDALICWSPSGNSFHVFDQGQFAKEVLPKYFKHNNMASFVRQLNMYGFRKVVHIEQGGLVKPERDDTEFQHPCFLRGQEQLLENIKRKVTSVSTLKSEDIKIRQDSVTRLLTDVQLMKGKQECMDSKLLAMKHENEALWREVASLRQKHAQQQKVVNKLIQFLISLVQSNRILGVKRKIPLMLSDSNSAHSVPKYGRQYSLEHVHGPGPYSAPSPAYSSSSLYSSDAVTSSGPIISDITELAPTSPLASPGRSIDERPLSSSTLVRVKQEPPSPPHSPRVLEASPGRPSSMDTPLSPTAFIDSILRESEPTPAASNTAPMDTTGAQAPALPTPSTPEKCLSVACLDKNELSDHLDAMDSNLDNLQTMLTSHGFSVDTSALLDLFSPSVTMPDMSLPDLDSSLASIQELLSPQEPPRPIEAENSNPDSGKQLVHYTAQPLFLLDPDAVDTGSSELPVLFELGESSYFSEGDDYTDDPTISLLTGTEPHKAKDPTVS

[2] = inhibitors of firefly luciferase expression or activity, dose response, H4 neuroglioma cells, luminescence (AID 1990); assay type: functional, cell-based
[3] = Luminescence Cell-Based Dose Response HTS to Identify Inhibitors of 5'UTR Stem-Loop Driven Prion Protein mRNA Translation in H4 Neuroglioblastoma Cells. [Related pubchem assays: 1827 (Project Summary), 1813 (Primary HTS)]; assay type: functional
[4] = inhibitors of SNCA 5'UTR-driven reporter translation, confirmation, H4 neuroglioma cells, luminescence (AID 1988); assay type: functional, cell-based
[5] = target: Paired box protein Pax-8 (Homo sapiens, UniProt Q06710); assay: inhibitors of PAX8-driven TPO luciferase reporter, dose response, RMG-I cells, cherry-pick (AID 687027); assay type: functional, cell-based;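 further: luciferase reporter driven by Pax8 target thyroperoxidase promoter measured by SteadyGlo luminescence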
[6] = tested on: Streptococcus sp. 'group A'; assay: growth inhibition of control SK(-) GAS strain, dose response, counter-screen for streptokinase expression inhibitor project, luminescence, kanamycin, BacTiterGlo, confirmation (AID 1900); assay type: functional, organism-based
[7] = tested on: Streptococcus; assay: Group A Streptococcus viability loss, dose response, counter-screen for streptokinase expression inhibitor project, luminescence, BacTiterGlo (AID 1915); assay type: functional, organism-based;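 further: potency for reduction of bacterial viability or growth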
[8] = target: T2, Carboxy-terminal domain RNA polymerase II polypeptide A small phosphatase 1 (Homo sapiens, UniProt Q9GZU7); assay: inhibitors of CTDSP1, concentration-response testing, biochemical assay, absorbance-based, actives from ultra-high-throughput screening (AID 540297); assay type: functional
T2 sequence (Q9GZU7 whole entry): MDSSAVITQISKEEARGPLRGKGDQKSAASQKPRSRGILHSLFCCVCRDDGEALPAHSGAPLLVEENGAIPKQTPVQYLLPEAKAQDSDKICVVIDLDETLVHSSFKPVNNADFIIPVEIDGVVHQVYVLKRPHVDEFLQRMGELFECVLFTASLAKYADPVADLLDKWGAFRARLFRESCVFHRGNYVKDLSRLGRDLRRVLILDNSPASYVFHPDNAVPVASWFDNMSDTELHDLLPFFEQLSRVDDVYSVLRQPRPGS

[9] = NIH-3T3 fibroblast cytotoxicity, dose response, cytotoxicity control, cell-based, fluorescence, Alamar Blue, secondary assay (AID 2327); assay type: functional;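 further: NIH-3T3 mouse fibroblasts cultured with fluconazole at 8 µg/mL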
[10] = C. albicans growth with fluconazole, confirmation, fluorescence, retest (AID 2467); assay type: functional, cell-based
[11] = target: T3, Polyadenylate-binding protein 1 (Homo sapiens, UniProt P11940); assay: PABP1 MLLE–PAM2 interaction inhibitors, dose response, miRNA deadenylation inhibitor project, biochemical, fluorescence polarization, Cy5-PAM2 peptide, secondary (AID 602260); assay type: functional; details: read-out: IC50_Mean
[12] = target: T3, Polyadenylate-binding protein 1; assay: PABP1 MLLE–PAM2 binding inhibitor potency, dose response, biochemical, fluorescence polarization, FITC-PAM2 peptide (AID 602259); assay type: functional; details: read-out: IC50_Mean
[13] = Luminescence Cell-Based Dose Retest to Confirm Inhibitors of Cancer Stem Cells. [Related pubchem assays (depositor defined):AID2717, AID2721]; assay type: functional; details: Homo sapiens
[14] = HEp-2 cell cytotoxicity, dose response, cytotoxicity control for RSV inhibitor project, HTS (AID 2410); assay type: functional; details: human respiratory syncytial virus
[15] = inhibitors of intracellular T. cruzi replication, confirmation, NIH3T3 host cells, beta-gal luminescence (AID 2044); assay type: functional, cell-based;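 further: intracellular parasites grown in NIH/3T3 mouse fibroblasts as host cells; luminescent beta-galactosidase reporter signal from transgenic T. cruzi replicating inside host cells; inhibitors lower the luminescence signal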
[16] = cytotoxicity toward NIH3T3 fibroblasts, dose response, counter-screen, cell-based, ATP luminescence, mouse fibroblasts (AID 2010); assay type: functional;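 further: cells exposed to compound for about 90 hours before reading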
[17] = growth suppression of beta-catenin-knockout colon cells, dose response, cell-based, HCT116, human colon tumor (AID 1045); assay type: functional;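 further: HCT116 colon tumor cells with beta catenin knocked out; cells exposed to compound for 60 hours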
[18] = target: FAD-linked sulfhydryl oxidase ALR (Homo sapiens, UniProt P55789); assay: inhibitors of human ALR sulfhydryl oxidase, dose response, biochemical, H2O2 detection, luminescence, cherry-pick (AID 493248)
FAD-linked sulfhydryl oxidase ALR, sequence (P55789 whole entry): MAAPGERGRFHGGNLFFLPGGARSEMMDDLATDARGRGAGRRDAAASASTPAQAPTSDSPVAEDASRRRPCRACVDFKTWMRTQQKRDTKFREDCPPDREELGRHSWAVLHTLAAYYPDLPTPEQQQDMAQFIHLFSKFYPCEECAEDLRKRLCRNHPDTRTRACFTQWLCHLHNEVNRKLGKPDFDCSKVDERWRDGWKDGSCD

T3 sequence (P11940 whole entry): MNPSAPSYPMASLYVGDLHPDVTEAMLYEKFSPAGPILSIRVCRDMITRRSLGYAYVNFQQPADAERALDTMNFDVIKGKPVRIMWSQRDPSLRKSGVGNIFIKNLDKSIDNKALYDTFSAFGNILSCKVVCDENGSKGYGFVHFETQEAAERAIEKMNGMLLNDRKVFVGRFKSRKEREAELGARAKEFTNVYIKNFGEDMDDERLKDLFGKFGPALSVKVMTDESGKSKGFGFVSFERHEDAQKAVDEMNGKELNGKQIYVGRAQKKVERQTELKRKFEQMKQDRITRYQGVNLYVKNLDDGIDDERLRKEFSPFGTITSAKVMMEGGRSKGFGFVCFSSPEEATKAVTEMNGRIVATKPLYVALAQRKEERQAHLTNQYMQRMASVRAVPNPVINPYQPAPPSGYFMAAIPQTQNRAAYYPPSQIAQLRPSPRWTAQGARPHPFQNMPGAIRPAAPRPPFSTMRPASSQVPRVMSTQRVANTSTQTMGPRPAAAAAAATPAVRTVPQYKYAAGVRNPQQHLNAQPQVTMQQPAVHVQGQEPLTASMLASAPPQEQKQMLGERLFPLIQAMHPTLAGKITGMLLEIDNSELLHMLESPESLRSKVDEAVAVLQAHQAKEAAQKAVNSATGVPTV
Paired box protein Pax-8, sequence (Q06710 whole entry): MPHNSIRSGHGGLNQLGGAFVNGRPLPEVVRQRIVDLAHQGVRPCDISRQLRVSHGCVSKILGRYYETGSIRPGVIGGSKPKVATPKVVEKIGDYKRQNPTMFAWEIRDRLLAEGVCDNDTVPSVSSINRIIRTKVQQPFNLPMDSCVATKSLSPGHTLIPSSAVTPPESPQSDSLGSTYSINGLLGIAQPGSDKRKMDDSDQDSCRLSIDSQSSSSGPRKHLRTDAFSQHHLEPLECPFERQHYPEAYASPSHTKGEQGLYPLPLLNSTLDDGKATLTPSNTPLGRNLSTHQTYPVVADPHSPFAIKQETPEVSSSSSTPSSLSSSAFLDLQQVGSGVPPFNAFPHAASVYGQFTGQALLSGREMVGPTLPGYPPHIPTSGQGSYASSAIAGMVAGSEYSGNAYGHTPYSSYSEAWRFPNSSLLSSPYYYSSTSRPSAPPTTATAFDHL

COc1cc(O)nc(SCC(=O)Nc2nc3c(s2)CCCC3)n1
EC50 [1]: > 195 µM (not active)

COc1ccccc1N1CCN(S(=O)(=O)CCNC(=O)c2ccc(Br)o2)CC1
EC50 [2]: > 120 µM (not active) | EC50 [3]: > 120 µM (not active) | EC50 [4]: > 120 µM (not active)

O=C(CCl)Nc1cc2[nH]c(O)nc2cc1Br
AC50 [5]: 3.95 µM (active)

O=C(Nc1nnc(SCc2c(Cl)cccc2Cl)s1)C1CC(=O)N(c2ccc3c(c2)OCCO3)C1 (configuration not stated)
EC50 [6]: 44.2 µM (active) | EC50 [7]: 31.8 µM (active) | IC50 [8]: 4.6 µM (active)

CCOC(=O)CSC1=C(C#N)C(c2ccccc2C)C2=C(O)CCCC2=N1 (configuration not stated)
EC50 [1]: > 195 µM (not active)

O=c1oc2c(-c3ccc([N+](=O)[O-])cc3)cc(O)cc2s1
IC50 [8]: 6.91 µM (active)

CCN(c1ccccc1)S(=O)(=O)c1ccc(Cl)c(NC(=O)CN2C(=O)NC3(CCCC3)C2=O)c1
EC50 [9]: > 150 µM (inconclusive) | EC50 [10]: 4.42 µM (active)

COc1cc2c(cc1OC)C(c1ccccc1O)N(C1CC(=O)N(c3ccccc3)C1=O)CC2 (configuration not stated)
IC50 [11]: > 66 µM (inactive) | IC50 [12]: > 66 µM (inactive)

Cc1ccc(C)c2nc(O)c(CCNC(=O)C(C)(C)C)cc12
EC50 [1]: > 195 µM (not active)

O=C(Nc1cc(S(=O)(=O)Nc2ccc(Cl)cc2)ccc1N1CCCCC1)c1ccc(F)cc1Cl
AC50 [13]: 2.07 µM (active) | IC50 [11]: > 66 µM (inactive) | IC50 [12]: > 66 µM (inactive)

C=CCSC1=C(C#N)C(c2ccccc2OCC)C(C#N)C(=O)N1 (configuration not stated)
IC50 [11]: > 66 µM (inactive) | IC50 [12]: > 66 µM (inactive)

Cc1cccc(OCC(O)CN2CCN(S(=O)(=O)c3ccc(C)cc3C)CC2)c1 (configuration not stated)
EC50 [2]: > 120 µM (not active) | EC50 [3]: > 120 µM (not active) | EC50 [4]: 15.9 µM (active)

CC(=O)c1ccc(NC(=O)CCS(=O)(=O)c2ccc3c(c2)n(C)c(=O)c(=O)n3C)cc1
IC50 [8]: > 80 µM (inactive)

COCCN(Cc1cc2cc3c(cc2n2nnnc12)OCO3)C(=O)c1ccccc1F
EC50 [2]: > 120 µM (not active) | EC50 [3]: > 120 µM (not active) | EC50 [4]: > 120 µM (not active)

CN(c1ccccc1)S(=O)(=O)c1cccc(NC(=O)CN2CCc3ccccc3C2)c1
CC50 [14]: 22.4 µM (active)

Cc1c(NC(=S)NC(=O)CSc2ccc(Cl)cc2)cccc1C(=O)O
IC50 [11]: > 66 µM (inactive) | IC50 [12]: > 66 µM (inactive)

Oc1nc(SCCOc2cccc3ccccc23)nc2ccccc12
EC50 [2]: 15.4 µM (active) | EC50 [3]: > 120 µM (not active) | EC50 [4]: > 120 µM (not active)

O=C(O)c1cccc(-n2cccc2/C=C2\SC(=O)N(Cc3ccccc3F)C2=O)c1
IC50 [8]: 4.62 µM (active)

C=C(C)COc1ccc(-c2n[nH]cc2-c2ccc(OC)cc2)c(O)c1
CC50 [14]: 14.8 µM (active) | AC50 [13]: 7.79 µM (active)

Cc1nc(Sc2ccc(Cl)cc2)c(C#N)c(C)c1[N+](=O)[O-]
CC50 [14]: 13.2 µM (active)

Cc1c(C(=O)C(=O)N2c3ccc(F)cc3CCC2C)c2ccccc2n1C (configuration not stated)
EC50 [2]: 10.5 µM (active) | EC50 [3]: 12.2 µM (active) | EC50 [4]: 5.47 µM (active)

CC(C)(C)c1cc(C(=O)NNc2ccc(OC(F)(F)F)cc2)n(Cc2ccccc2)n1
EC50 [9]: > 160 µM (inactive) | EC50 [10]: 3.05 µM (active)

COc1ccc(C(=O)NC2(C(F)(F)F)N=C3SCCN3C2=O)cc1 (configuration not stated)
IC50 [11]: > 66 µM (inactive) | IC50 [12]: > 66 µM (inactive)

CCCN(CCC)S(=O)(=O)c1ccc(NC(=O)c2cc(C(=O)OC)cc([N+](=O)[O-])c2)cc1
EC50 [1]: > 195 µM (not active) | EC50 [15]: 0.323 µM (active) | EC50 [16]: > 60 µM (inconclusive)

CCOC(=O)COc1ccc(S(=O)(=O)N2CCN(c3ccccc3F)CC2)cc1
EC50 [9]: > 150 µM (inconclusive) | EC50 [10]: > 38 µM (not active)

Cc1ccccc1C(=O)NCCNc1ccc([N+](=O)[O-])cc1
EC50 [2]: > 120 µM (not active) | EC50 [3]: > 120 µM (not active) | EC50 [4]: > 120 µM (not active)

N#Cc1c(NC(=O)c2nc3ncccn3n2)sc2c1CCCCC2
EC50 [9]: > 150 µM (inactive) | EC50 [10]: 0.403 µM (active)

CC(=O)ON1C(C)(C)CC(OC(=O)c2ccccc2)CC1(C)C
EC50 [17]: 124 µM (active)

Cc1c(NC(=S)NC(=O)c2cccc3ccccc23)cccc1C(=O)O
IC50 [11]: > 66 µM (inactive) | IC50 [12]: > 66 µM (inactive)

CS(=O)(=O)N(CC(=O)NCCSC1CCCCC1)c1ccc2c(c1)OCO2
EC50 [1]: > 195 µM (not active)

CCOC(=O)C1=C(C)N(C)C(C)=C(C(=O)OCC)C1c1ccc(C(=O)OC)cc1
EC50 [2]: 35.5 µM (active) | EC50 [3]: > 120 µM (not active) | EC50 [4]: 37.9 µM (active)

COc1ccccc1NC(=O)CN1CCN(c2ccccc2OC)CC1
EC50 [9]: > 160 µM (inactive) | EC50 [10]: > 38 µM (not active)

CCC1=CC(c2ccccc2)n2ncnc2N1 (configuration not stated)
EC50 [1]: > 195 µM (not active)

O=C(Nc1cc(F)cc(F)c1)c1ccc(NCCCN2CCCCCC2)c([N+](=O)[O-])c1
EC50 [9]: 105 µM (active) | EC50 [10]: > 38 µM (not active)

COc1cc(/C=C/C(=O)NC(C)C2CC3CCC2C3)cc(OC)c1OC (configuration not stated)
EC50 [1]: > 195 µM (not active)

Cc1ccc(S(=O)(=O)CC(=O)Nc2nnc(C(C)(C)C)s2)cc1
IC50 [11]: > 66 µM (inactive) | IC50 [12]: > 66 µM (inactive)

CC1CCN(c2ccc(NC(=S)NC(=O)c3ccc(-c4cccc([N+](=O)[O-])c4)o3)cc2)CC1
IC50 [11]: > 66 µM (inactive) | IC50 [12]: > 66 µM (inactive)

O=[N+]([O-])c1cccc(CN2[C@@H](Cc3ccccc3)COCCS2(=O)=O)c1
EC50 [1]: > 195 µM (not active)

O=C(O)CC(SCC(=O)Nc1ccc(S(=O)(=O)N2CCCC2)cc1)C(=O)O (configuration not stated)
IC50 [11]: > 66 µM (inactive) | IC50 [12]: > 66 µM (inactive)

O=C(Nc1ccc2c(c1)CCCN2C(=O)c1cccs1)c1c(F)cccc1Cl
CC50 [14]: 24.1 µM (active)

COc1ccc(Nc2ccc(N3C(=O)CC(C)C3=O)cc2[N+](=O)[O-])cn1 (configuration not stated)
IC50 [11]: > 66 µM (inactive) | IC50 [12]: 48.4 µM (inactive)

Cc1nc(NS(=O)(=O)c2ccc(Br)cc2)c2c3c(sc2n1)CCC3
EC50 [9]: > 160 µM (inactive) | EC50 [10]: 1.93 µM (active)

Cc1cccc2cc(CN(CC3CCCO3)C(c3nnnn3Cc3ccco3)C(C)C)c(O)nc12 (configuration not stated)
CC50 [14]: 16.8 µM (active)

COc1ccc(S(=O)(=O)N2CCCCN3[C@H](C2)[C@@H](c2ccc(C#CC(C)C)cc2)[C@@H]3CO)cc1
AC50 [5]: 6.14 µM (active)

CC(C)CC#Cc1ccc2c(c1)O[C@@H](CN(C)Cc1ccncc1)[C@H](C)CN([C@@H](C)CO)S2(=O)=O
AC50 [5]: 5.97 µM (active)

C[C@@H]1CN([C@@H](C)CO)C(=O)c2cc(NS(=O)(=O)c3ccc(Cl)cc3)ccc2O[C@@H](C)CCCCO[C@H]1CN(C)Cc1ccc(C(F)(F)F)cc1
AC50 [5]: 8.29 µM (active)

CN(C)c1ccc(/C=N/Nc2ccc(-n3ccnc3)nn2)cc1
EC50 [1]: > 195 µM (not active) | AC50 [18]: 3.85 µM (active)

CCOC(=O)C1CCCN(c2nc3ccccc3nc2C(C#N)C(=O)OCC)C1 (configuration not stated)
CC50 [14]: 33.7 µM (active)

C=CC[N+]1(C)CC[C@]23c4c5ccc(O)c4O[C@H]2C(=O)CC[C@@]3(O)[C@H]1C5 (some centres not stated) [NALOXONE METHIODIDE]
IC50 [8]: 9.73 µM (active)
